Starred links: 1 amine or outer side, 2 acyl side, 3 side chain; linkers in the order of their positions; H or OH if unused. Non-standard residues stand in square brackets, D forms with d. Residues, ends and D or L forms follow the SMILES beside them. Groups on a side chain read outwards from the residue. *: point of attachment. C18 diacid = O=C(O)CCCCCCCCCCCCCCCCC(=O)*; αMePhe(2-F) = C[C@](N)(Cc1ccccc1F)C(=O)O; γGlu = O=C(O)[C@H](CCC(=O)[*:2])N[*:1]; αMeY = C[C@](N)(Cc1ccc(O)cc1)C(=O)O; αMeF = C[C@](N)(Cc1ccccc1)C(=O)O; αMeL = CC(C)C[C@](C)(N)C(=O)O; αMeS = C[C@](N)(CO)C(=O)O; Orn = NCCC[C@H](N)C(=O)O; AEEA = NCCOCCOCC(=O)O; Aib = CC(C)(N)C(=O)O

We go through five compounds from patent US20240270821A1, “GIP/GLP1/GCG TRI-RECEPTOR AGONISTS AND USES THEREOF” (priority 2023, published 2024).

What all share (assay type): cell-based
The target in test [1] is T1, hGIPR (Homo sapiens, UniProt P48546).
T1 sequence (P48546 22-466): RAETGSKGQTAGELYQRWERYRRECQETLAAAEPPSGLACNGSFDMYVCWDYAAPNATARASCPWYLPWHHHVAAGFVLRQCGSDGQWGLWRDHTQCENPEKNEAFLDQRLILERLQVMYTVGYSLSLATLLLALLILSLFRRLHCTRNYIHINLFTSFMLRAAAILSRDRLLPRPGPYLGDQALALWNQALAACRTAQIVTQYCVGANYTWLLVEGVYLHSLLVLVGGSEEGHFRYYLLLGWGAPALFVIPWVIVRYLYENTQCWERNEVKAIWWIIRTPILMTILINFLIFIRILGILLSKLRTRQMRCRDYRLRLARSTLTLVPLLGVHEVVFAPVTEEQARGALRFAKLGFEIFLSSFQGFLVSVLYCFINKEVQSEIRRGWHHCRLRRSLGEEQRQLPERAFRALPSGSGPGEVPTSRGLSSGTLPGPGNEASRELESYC
In words: Functional cAMP activity in the presence of 1% HSA. The note with it: read-out: cAMP Rel EC50, hGIPR.

Test [2] concerns the target T2, hGLP-1R (Homo sapiens, UniProt P43220). Briefly: Functional cAMP activity in the presence of 1% HSA. The note with it: read-out: cAMP Rel EC50, hGLP-1R.
For test [3], the target named is human GcgR (Homo sapiens, UniProt P47871). In words: Functional cAMP activity in the presence of 1% HSA. The note with it: read-out: cAMP Rel EC50, hGcgR.
The target of test [4] is T1, hGIPR. In words: Functional cAMP activation in the presence of 0.1% casein (no HSA). To be noted: read-out: Relative cAMP EC50, hGIPR.
Description: After a 30-minute incubation at 37° C., the resulting increase in intracellular cAMP is quantitatively determined using the CisBio CAMP Dynamic 2 HTRF Assay Kit (62AM4PEJ). Briefly, cAMP levels within the cell are detected by adding the cAMP-d2 conjugate in cell lysis buffer followed by the antibody anti-cAMP-Eu^3+-Cryptate, also in cell lysis buffer.
Intracellular cAMP levels are determined by extrapolation using a standard curve. Dose response curves of compounds are plotted as the percentage of stimulation normalized to minimum (buffer only) and maximum (maximum concentration of each control ligand) values and analyzed using a four parameter non-linear regression fit with a variable slope (Genedata Screener 13). EC50 is the concentration of compound causing half-maximal simulation in a dose response curve. Each relative EC50 value for the Geometric mean calculation is determined from a curve fitting.
Test [5] deals with T2, hGLP-1R. Described as above. The note with it: read-out: Relative cAMP EC50, hGLP-1R.
Test [6] deals with hGcgR (Homo sapiens, UniProt P47871). The test is described as above. The note with it: read-out: Relative cAMP EC50, hGcgR.
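Throughout, for Relative cAMP EC50, hGIPR: intracellular cAMP rise after 30 min at 37 °C read by HTRF against a standard curve, scaled between buffer alone (0%) and top control ligand concentration (100%), four-parameter fit.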
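Throughout, for Relative cAMP EC50, hGLP-1R: intracellular cAMP rise after 30 min at 37 °C read by HTRF, normalized between buffer only (0%) and maximal control ligand (100%), four-parameter variable-slope fit.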
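Throughout, for Relative cAMP EC50, hGcgR: intracellular cAMP rise after 30 min at 37 °C, read by HTRF against a cAMP standard curve, scaled from buffer only (0%) to maximal control ligand response (100%).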

T2 sequence (P43220 24-463): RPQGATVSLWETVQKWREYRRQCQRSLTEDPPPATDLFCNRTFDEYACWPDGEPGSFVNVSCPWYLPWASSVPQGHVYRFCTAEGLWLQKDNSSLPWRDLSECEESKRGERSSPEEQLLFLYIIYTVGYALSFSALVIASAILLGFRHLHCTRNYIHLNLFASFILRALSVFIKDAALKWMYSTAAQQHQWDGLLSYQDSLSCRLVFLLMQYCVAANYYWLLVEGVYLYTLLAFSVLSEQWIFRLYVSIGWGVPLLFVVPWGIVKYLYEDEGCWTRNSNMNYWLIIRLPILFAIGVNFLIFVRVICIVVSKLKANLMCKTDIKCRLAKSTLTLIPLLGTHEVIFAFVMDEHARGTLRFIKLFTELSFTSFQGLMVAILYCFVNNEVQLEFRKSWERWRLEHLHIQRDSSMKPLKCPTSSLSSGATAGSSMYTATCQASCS
Chain of human GcgR (P47871 26-477): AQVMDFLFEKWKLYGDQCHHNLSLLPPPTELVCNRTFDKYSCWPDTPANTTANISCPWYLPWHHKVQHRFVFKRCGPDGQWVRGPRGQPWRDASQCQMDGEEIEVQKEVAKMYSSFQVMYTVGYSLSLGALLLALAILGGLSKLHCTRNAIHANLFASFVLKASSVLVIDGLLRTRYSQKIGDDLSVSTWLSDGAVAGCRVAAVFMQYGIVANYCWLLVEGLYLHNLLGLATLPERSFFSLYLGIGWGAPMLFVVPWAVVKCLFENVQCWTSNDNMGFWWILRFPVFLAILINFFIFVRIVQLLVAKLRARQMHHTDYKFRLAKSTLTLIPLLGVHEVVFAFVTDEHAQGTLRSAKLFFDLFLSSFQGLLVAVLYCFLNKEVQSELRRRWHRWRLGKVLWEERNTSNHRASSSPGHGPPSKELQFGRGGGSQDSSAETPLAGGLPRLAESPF
Chain of hGcgR (P47871 26-477): as above

As to `CC[C@H](C)[C@H](NC(=O)[C@H](Cc1ccccc1)NC(=O)[C@H](C)NC(=O)C(C)(C)NC(=O)[C@H](CCC(N)=O)NC(=O)[C@H](C)NC(=O)[C@H](CCCCNC(=O)COCCOCCNC(=O)CC[C@H](NC(=O)CCCCCCCCCCCCCCCCC(=O)O)C(=O)O)NC(=O)[C@H](CCCCN)NC(=O)[C@H](CC(=O)O)NC(=O)[C@H](CC(C)C)NC(=O)[C@](C)(CC(C)C)NC(=O)[C@@H](NC(=O)[C@H](CO)NC(=O)[C@H](Cc1ccc(O)cc1)NC(=O)[C@H](CC(=O)O)NC(=O)[C@H](CO)NC(=O)[C@@H](NC(=O)[C@](C)(Cc1ccccc1)NC(=O)[C@@H](NC(=O)CNC(=O)[C@H](CCC(N)=O)NC(=O)C(C)(C)NC(=O)[C@@H](N)Cc1ccc(O)cc1)[C@@H](C)O)[C@@H](C)O)[C@@H](C)CC)C(=O)N[C@@H](CCC(=O)O)C(=O)N[C@@H](Cc1ccc(O)cc1)C(=O)N[C@@H](CC(C)C)C(=O)N[C@@H](CCC(=O)O)C(=O)N[C@@H](CCC(=O)O)C(=O)NCC(=O)NCC(=O)N1CCC[C@H]1C(=O)N[C@@H](CO)C(=O)N[C@@H](CO)C(=O)NCC(=O)N[C@@H](C)C(=O)N1CCC[C@H]1C(=O)N1CCC[C@H]1C(=O)N1CCC[C@H]1C(=O)N[C@@H](CCC(=O)O)C(N)=O` [Example 396] (H-Y[Aib]QGT[αMeF]TSDYSI[αMeL]LDKK([AEEA-γGlu-C18 diacid])AQ[Aib]AFIEYLEEGGPSSGAPPPE-NH2), the EC50 (usually the concentration needed to bring the measured effect to its halfway point) was 9.5 nM in test [1]; 38.2 nM in test [2]; 468 nM in test [3]; 0.024 nM in test [4]; 0.293 nM in test [5]; 4.99 nM in test [6].

For the compound `CC[C@H](C)[C@H](NC(=O)[C@H](Cc1ccccc1)NC(=O)[C@H](C)NC(=O)C(C)(C)NC(=O)[C@H](CCC(N)=O)NC(=O)[C@H](C)NC(=O)[C@H](CCCCNC(=O)COCCOCCNC(=O)CC[C@H](NC(=O)CCCCCCCCCCCCCCCCC(=O)O)C(=O)O)NC(=O)[C@H](CCCN)NC(=O)[C@H](CC(=O)O)NC(=O)[C@H](CC(C)C)NC(=O)[C@](C)(CC(C)C)NC(=O)[C@@H](NC(=O)[C@H](CO)NC(=O)[C@H](Cc1ccc(O)cc1)NC(=O)[C@H](CC(=O)O)NC(=O)[C@H](CO)NC(=O)[C@@H](NC(=O)[C@](C)(Cc1ccccc1)NC(=O)[C@@H](NC(=O)CNC(=O)[C@H](CCC(N)=O)NC(=O)C(C)(C)NC(=O)[C@@H](N)Cc1ccc(O)cc1)[C@@H](C)O)[C@@H](C)O)[C@@H](C)CC)C(=O)N[C@@H](CCC(=O)O)C(=O)N[C@@H](Cc1ccc(O)cc1)C(=O)N[C@@H](CC(C)C)C(=O)N[C@@H](CCC(=O)O)C(=O)N[C@@H](CCC(=O)O)C(=O)NCC(=O)NCC(=O)N1CCC[C@H]1C(=O)N[C@@H](CO)C(=O)N[C@@H](CO)C(=O)NCC(=O)N[C@@H](C)C(=O)N1CCC[C@H]1C(=O)N1CCC[C@H]1C(=O)N1CCC[C@H]1C(=O)N[C@@H](CCC(=O)O)C(N)=O` [Example 397] (H-Y[Aib]QGT[αMeF]TSDYSI[αMeL]LD[Orn]K([AEEA-γGlu-C18 diacid])AQ[Aib]AFIEYLEEGGPSSGAPPPE-NH2), the EC50 is 10.1 nM in test [1]; 34.9 nM in test [2]; 1110 nM in test [3]; 0.0247 nM in test [4]; 0.2 nM in test [5]; 5.22 nM in test [6].

Take `CC[C@H](C)[C@H](NC(=O)[C@H](Cc1ccccc1)NC(=O)[C@H](C)NC(=O)C(C)(C)NC(=O)[C@H](CCC(N)=O)NC(=O)[C@H](C)NC(=O)[C@H](CCCCNC(=O)COCCOCCNC(=O)CC[C@H](NC(=O)CCCCCCCCCCCCCCCCC(=O)O)C(=O)O)NC(=O)[C@H](CCCCN)NC(=O)[C@H](CC(=O)O)NC(=O)[C@H](CC(C)C)NC(=O)[C@H](CC(C)C)NC(=O)[C@@H](NC(=O)[C@H](CO)NC(=O)[C@H](Cc1ccc(O)cc1)NC(=O)[C@H](CC(=O)O)NC(=O)[C@H](CO)NC(=O)[C@@H](NC(=O)[C@](C)(Cc1ccccc1F)NC(=O)[C@@H](NC(=O)CNC(=O)[C@H](CCC(N)=O)NC(=O)C(C)(C)NC(=O)[C@@H](N)Cc1ccc(O)cc1)[C@@H](C)O)[C@@H](C)O)[C@@H](C)CC)C(=O)N[C@@H](CCC(=O)O)C(=O)N[C@@H](Cc1ccc(O)cc1)C(=O)N[C@@H](CC(C)C)C(=O)N[C@@H](CCC(=O)O)C(=O)N[C@@H](CCC(=O)O)C(=O)NCC(=O)NCC(=O)N1CCC[C@H]1C(=O)N[C@@H](CO)C(=O)N[C@@H](CO)C(=O)NCC(=O)N[C@@H](C)C(=O)N1CCC[C@H]1C(=O)N1CCC[C@H]1C(=O)N1CCC[C@H]1C(=O)N[C@@H](CO)C(=O)N[C@@H](CCC(=O)O)C(=O)NCC(N)=O` [Example 398]: the EC50 in test [1] amounted to 12.4 nM; in test [2], 42.2 nM; in test [3], 375 nM; in test [4], 0.0318 nM; in test [5], 0.186 nM; in test [6], 2.16 nM.

Consider `CC[C@H](C)[C@H](NC(=O)[C@H](Cc1ccccc1)NC(=O)[C@H](C)NC(=O)C(C)(C)NC(=O)[C@H](CCC(N)=O)NC(=O)[C@H](C)NC(=O)[C@H](CCCCNC(=O)COCCOCCNC(=O)CC[C@H](NC(=O)CCCCCCCCCCCCCCCCC(=O)O)C(=O)O)NC(=O)[C@H](CCCCN)NC(=O)[C@H](CC(=O)O)NC(=O)[C@H](CC(C)C)NC(=O)[C@](C)(CC(C)C)NC(=O)[C@@H](NC(=O)[C@H](CO)NC(=O)[C@H](Cc1ccc(O)cc1)NC(=O)[C@H](CC(=O)O)NC(=O)[C@H](CO)NC(=O)[C@@H](NC(=O)[C@](C)(Cc1ccccc1F)NC(=O)[C@@H](NC(=O)CNC(=O)[C@H](CCC(N)=O)NC(=O)C(C)(C)NC(=O)[C@@H](N)Cc1ccc(O)cc1)[C@@H](C)O)[C@@H](C)O)[C@@H](C)CC)C(=O)N[C@@H](CCC(=O)O)C(=O)N[C@@H](Cc1ccc(O)cc1)C(=O)N[C@@H](CC(C)C)C(=O)N[C@@H](CCC(=O)O)C(=O)N[C@@H](CCC(=O)O)C(=O)NCC(=O)NCC(=O)N1CCC[C@H]1C(=O)N[C@@H](CO)C(=O)N[C@@H](CO)C(=O)NCC(=O)N[C@@H](C)C(=O)N1CCC[C@H]1C(=O)N1CCC[C@H]1C(=O)N1CCC[C@H]1C(=O)N[C@@H](CCC(=O)O)C(N)=O` [Example 400] (H-Y[Aib]QGT[αMePhe(2-F)]TSDYSI[αMeL]LDKK([AEEA-γGlu-C18 diacid])AQ[Aib]AFIEYLEEGGPSSGAPPPE-NH2), for which the EC50 in test [1] came to 3.86 nM; in test [2], 29.1 nM; in test [3], 265 nM; in test [4] it was 0.0158 nM; in test [5], 0.253 nM; in test [6], 2.53 nM.

With `CC[C@H](C)[C@H](NC(=O)[C@H](Cc1ccccc1)NC(=O)[C@H](CCCN)NC(=O)C(C)(C)NC(=O)[C@H](CCC(N)=O)NC(=O)[C@H](C)NC(=O)[C@H](CCCCNC(=O)COCCOCCNC(=O)COCCOCCNC(=O)CC[C@H](NC(=O)CCCCCCCCCCCCCCCCC(=O)O)C(=O)O)NC(=O)[C@H](CCCN)NC(=O)[C@H](CC(=O)O)NC(=O)[C@H](CC(C)C)NC(=O)[C@](C)(CC(C)C)NC(=O)[C@@H](NC(=O)[C@](C)(CO)NC(=O)[C@H](Cc1ccc(O)cc1)NC(=O)[C@H](CC(=O)O)NC(=O)[C@H](CO)NC(=O)[C@@H](NC(=O)[C@](C)(Cc1ccccc1F)NC(=O)[C@@H](NC(=O)CNC(=O)[C@H](CCC(N)=O)NC(=O)C(C)(C)NC(=O)[C@@H](N)Cc1ccc(O)cc1)[C@@H](C)O)[C@@H](C)O)[C@@H](C)CC)C(=O)N[C@H](CCC(=O)O)C(=O)N[C@@](C)(Cc1ccc(O)cc1)C(=O)N[C@@H](CC(C)C)C(=O)N[C@@H](CCC(=O)O)C(=O)N[C@@H](CCC(=O)O)C(=O)NCC(=O)NCC(=O)N1CCC[C@H]1C(=O)N[C@@H](CO)C(=O)N[C@@H](CO)C(=O)NCC(=O)N[C@@H](CCC(=O)O)C(=O)N1CCC[C@H]1C(=O)N1CCC[C@H]1C(=O)N1CCC[C@H]1C(=O)N[C@@H](CCC(=O)O)C(N)=O` [Example 402] (H-Y[Aib]QGT[αMePhe(2-F)]TSDY[αMeS]I[αMeL]LD[Orn]K([AEEA-AEEA-γGlu-C18 diacid])AQ[Aib][Orn]FI[dE][αMeY]LEEGGPSSGEPPPE-NH2; N-terminus assumed), the EC50 in test [1] amounted to 44.9 nM; in test [2], 86.6 nM; in test [3], 1030 nM; in test [4] it was 0.123 nM; in test [5] it was 0.725 nM; in test [6], 5.66 nM.
